The nature of this series: saturation solubility of tacrolimus in different solvents (HPLC in the supernatant). The format is physicochemical. Conditions: all tested organic solvents. Here is the method: Tacrolimus was dissolved in an organic solvent. Particularly, the saturation solubility of tacrolimus in different organic solvents was tested. Crystalline active ingredient was added to a defined amount of solvent at room temperature while stirring until an insoluble sediment was formed. After filtration, the concentration of active ingredient was quantified by HPLC in the supernatant.

Consider `C=CC[C@@H]1/C=C(\C)C[C@H](C)C[C@H](OC)[C@H]2O[C@@](O)(C(=O)C(=O)N3CCCC[C@H]3C(=O)O[C@H](/C(C)=C/[C@@H]3CC[C@@H](O)[C@H](OC)C3)[C@H](C)[C@@H](O)CC1=O)[C@H](C)C[C@@H]2OC` [Tacrolimus], for which the “solubility in organic solvents” value is reported as “soluble in all tested organic solvents”.

The record behind these values is patent US20240180822A1, “NON-NANOPARTICULATE APPLICATION FORMS OF MACROLIDES” (Nucleus Medical GmbH, priority 2021, published 2024).
